Data: the NIST ThermoML archive (doi:10.1016/j.fluid.2015.12.007)
Numbers after ± are expanded uncertainties.

Assay: xn = mol fraction of the nth substance listed
Details: 101 kPa, Liquid; for speed of sound: Sing-around technique in a fixed-path interferometer; for mass density: Vibrating tube method

CC(O)CO (centres undefined) [1,2-propanediol] + CCCCn1cc[n+](C)c1.F[B-](F)(F)F
Details | mass density [kg/m3] | speed of sound [m/s]
293.15 K, x2 = 0.0521 | 1056.41 ± 0.14 | 1527.9 ± 1.3
293.15 K, x2 = 0.1068 | 1074.4 ± 0.14 | 1532.7 ± 1.3
293.15 K, x2 = 0.2089 | 1101.55 ± 0.15 | 1538.5 ± 1.3
293.15 K, x2 = 0.3074 | 1122.27 ± 0.16 | 1543.9 ± 1.3
293.15 K, x2 = 0.4035 | 1139.05 ± 0.16 | 1549.8 ± 1.3
293.15 K, x2 = 0.5031 | 1153.8 ± 0.17 | 1554.6 ± 1.3
293.15 K, x2 = 0.5907 | 1164.95 ± 0.16 | 1559 ± 1.3
293.15 K, x2 = 0.7031 | 1177.42 ± 0.15 | 1564.6 ± 1.2
293.15 K, x2 = 0.8 | 1187.25 ± 0.15 | 1568.6 ± 1.2
293.15 K, x2 = 0.8992 | 1196.18 ± 0.15 | 1572 ± 1.2
298.15 K, x2 = 0.0521 | 1052.69 ± 0.14 | 1515.3 ± 1.3
298.15 K, x2 = 0.1068 | 1070.64 ± 0.14 | 1520 ± 1.3
298.15 K, x2 = 0.2089 | 1097.72 ± 0.15 | 1526.2 ± 1.3
298.15 K, x2 = 0.3074 | 1118.42 ± 0.16 | 1531.5 ± 1.3
298.15 K, x2 = 0.4035 | 1135.23 ± 0.16 | 1537.5 ± 1.3
298.15 K, x2 = 0.5031 | 1150.01 ± 0.17 | 1542.5 ± 1.3
298.15 K, x2 = 0.5907 | 1161.21 ± 0.16 | 1547 ± 1.3
298.15 K, x2 = 0.7031 | 1173.74 ± 0.15 | 1552.6 ± 1.2
298.15 K, x2 = 0.8 | 1183.62 ± 0.15 | 1556.7 ± 1.2
298.15 K, x2 = 0.8992 | 1192.57 ± 0.15 | 1560.5 ± 1.2
303.15 K, x2 = 0.0521 | 1048.94 ± 0.14 | 1502.2 ± 1.3
303.15 K, x2 = 0.1068 | 1066.85 ± 0.14 | 1507 ± 1.3
303.15 K, x2 = 0.2089 | 1093.89 ± 0.15 | 1513.8 ± 1.3
303.15 K, x2 = 0.3074 | 1114.58 ± 0.16 | 1519.2 ± 1.3
303.15 K, x2 = 0.4035 | 1131.41 ± 0.16 | 1525.3 ± 1.3
303.15 K, x2 = 0.5031 | 1146.23 ± 0.16 | 1530.3 ± 1.3
303.15 K, x2 = 0.5907 | 1157.48 ± 0.16 | 1535 ± 1.2
303.15 K, x2 = 0.7031 | 1170.07 ± 0.15 | 1540.7 ± 1.2
303.15 K, x2 = 0.8 | 1180 ± 0.15 | 1544.9 ± 1.2
303.15 K, x2 = 0.8992 | 1188.99 ± 0.15 | 1549 ± 1.2
308.15 K, x2 = 0.0521 | 1045.16 ± 0.14 | 1488.9 ± 1.3
308.15 K, x2 = 0.1068 | 1063.06 ± 0.14 | 1494 ± 1.3
308.15 K, x2 = 0.2089 | 1090.06 ± 0.15 | 1501.1 ± 1.3
308.15 K, x2 = 0.3074 | 1110.75 ± 0.16 | 1506.8 ± 1.3
308.15 K, x2 = 0.4035 | 1127.62 ± 0.16 | 1513.1 ± 1.3
308.15 K, x2 = 0.5031 | 1142.48 ± 0.16 | 1518.2 ± 1.3
308.15 K, x2 = 0.5907 | 1153.77 ± 0.16 | 1523 ± 1.2
308.15 K, x2 = 0.7031 | 1166.42 ± 0.15 | 1528.9 ± 1.2
308.15 K, x2 = 0.8 | 1176.39 ± 0.15 | 1533.2 ± 1.2
308.15 K, x2 = 0.8992 | 1185.42 ± 0.15 | 1537.5 ± 1.2
313.15 K, x2 = 0.0521 | 1041.36 ± 0.14 | 1475.6 ± 1.3
313.15 K, x2 = 0.1068 | 1059.24 ± 0.14 | 1481.1 ± 1.3
313.15 K, x2 = 0.2089 | 1086.22 ± 0.15 | 1488.5 ± 1.3
313.15 K, x2 = 0.3074 | 1106.92 ± 0.16 | 1494.5 ± 1.3
313.15 K, x2 = 0.4035 | 1123.83 ± 0.16 | 1501 ± 1.3
313.15 K, x2 = 0.5031 | 1138.74 ± 0.16 | 1506.2 ± 1.3
313.15 K, x2 = 0.5907 | 1150.08 ± 0.15 | 1511.1 ± 1.2
313.15 K, x2 = 0.7031 | 1162.79 ± 0.15 | –
313.15 K, x2 = 0.8 | 1172.81 ± 0.15 | 1521.7 ± 1.2
313.15 K, x2 = 0.8992 | 1181.86 ± 0.15 | 1526.1 ± 1.2
318.15 K, x2 = 0.0521 | 1037.53 ± 0.13 | 1462.3 ± 1.3
318.15 K, x2 = 0.1068 | 1055.4 ± 0.14 | 1468.1 ± 1.3
318.15 K, x2 = 0.2089 | 1082.38 ± 0.15 | 1476 ± 1.3
318.15 K, x2 = 0.3074 | 1103.1 ± 0.15 | 1482.3 ± 1.3
318.15 K, x2 = 0.4035 | 1120.04 ± 0.16 | 1488.9 ± 1.3
318.15 K, x2 = 0.5031 | 1135.01 ± 0.16 | 1494.3 ± 1.2
318.15 K, x2 = 0.5907 | 1146.4 ± 0.15 | 1499.4 ± 1.2
318.15 K, x2 = 0.7031 | 1159.17 ± 0.15 | 1505.6 ± 1.2
318.15 K, x2 = 0.8 | 1169.23 ± 0.15 | 1510.3 ± 1.2
318.15 K, x2 = 0.8992 | 1178.32 ± 0.15 | 1515 ± 1.2
